{"source": "PubChem BioAssay AID330", "about": "(DTP/NCI, 2004)", "test_system": "P388 leukemia ip, CD2F1 mice, survival T/C", "assay": "NCI In Vivo Anticancer Drug Screen. Data for tumor model P388 Leukemia (intraperitoneal) in CD2F1 (CDF1) mice", "details": "endpoint: median survival time, higher = longer survival", "method_in_brief": "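Mice carrying the transplanted tumor received test compound or vehicle. Survival was recorded in each group, and the value is the treated-group measurement divided by that of the vehicle-treated control group.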", "key": {"[1]": {"details": "dose: 50.0 mg/kg/injection, schedule: Q01DX009 (ip), vehicle: saline with Tween-80"}, "[2]": {"details": "dose: 100.0 mg/kg/injection, schedule: Q01DX009 (ip), vehicle: saline with Tween-80"}, "[3]": {"details": "dose: 50.0 mg/kg/injection, schedule: Q01DX005 (ip), vehicle: Klucel (hydroxypropylcellulose) (HPC)"}, "[4]": {"details": "dose: 100.0 mg/kg/injection, schedule: Q01DX005 (ip), vehicle: Klucel (hydroxypropylcellulose) (HPC)"}, "[5]": {"details": "dose: 25.0 mg/kg/injection, schedule: Q01DX009 (ip), vehicle: Klucel (hydroxypropylcellulose) (HPC)"}, "[6]": {"details": "dose: 50.0 mg/kg/injection, schedule: Q01DX009 (ip), vehicle: Klucel (hydroxypropylcellulose) (HPC)"}, "[7]": {"details": "dose: 60.0 mg/kg/injection, schedule: Q01DX005 (ip), vehicle: saline with Tween-80"}, "[8]": {"details": "dose: 120.0 mg/kg/injection, schedule: Q01DX005 (ip), vehicle: saline with Tween-80"}, "[9]": {"details": "dose: 240.0 mg/kg/injection, schedule: Q01DX005 (ip), vehicle: saline with Tween-80"}}, "note": "“And” between values parts separate entries of the source, which are not always exact repeats. Equal entries are not always repeated. Toxic doses and inconclusive results are not listed.", "data": [{"smiles": "CCCCCCSc1nn(CCC#N)c(=O)[nH]c1=O", "values": [{"measurement": "T/C", "setting": "dose: 25.0 mg/kg/injection, schedule: Q01DX005 (ip), vehicle: distilled water + alcohol", "result": "103 % of control"}, {"measurement": "T/C", "setting": "dose: 50.0 mg/kg/injection, schedule: Q01DX005 (ip), vehicle: distilled water + alcohol", "result": "108 % of control"}, {"measurement": "T/C", "setting": "dose: 100.0 mg/kg/injection, schedule: Q01DX005 (ip), vehicle: distilled water + alcohol", "result": "103 % of control"}, {"measurement": "T/C", "setting": "dose: 200.0 mg/kg/injection, schedule: Q01DX005 (ip), vehicle: distilled water + alcohol", "result": "92 % of control"}]}, {"smiles": "CC(=O)N(O)c1ccccc1-c1ccccc1", "values": [{"measurement": "T/C", "setting": "[1]", "result": "103 % of control"}, {"measurement": "T/C", "setting": "[2]", "result": "99 % of control"}, {"measurement": "T/C", "setting": "dose: 200.0 mg/kg/injection, schedule: Q01DX009 (ip), vehicle: saline with Tween-80", "result": "97 % of control"}]}, {"smiles": "Cc1cccc(N=Nc2c(C)nn(C(N)=S)c2C)c1C", "values": [{"measurement": "T/C", "setting": "dose: 25.0 mg/kg/injection, schedule: Q01DX005 (ip), vehicle: Klucel (hydroxypropylcellulose) (HPC)", "result": "90 % of control"}, {"measurement": "T/C", "setting": "[3]", "result": "94 % of control"}, {"measurement": "T/C", "setting": "[4]", "result": "106 % of control"}]}, {"smiles": "CCOC(=O)c1cn[nH]c1N", "values": [{"measurement": "T/C", "setting": "[5]", "result": "108 % of control"}, {"measurement": "T/C", "setting": "[6]", "result": "93 % of control"}]}, {"smiles": "c1ccc(C[N+]23CCC(CC2)CC3)cc1", "values": [{"measurement": "T/C", "setting": "dose: 3.13 mg/kg/injection, schedule: Q04DX003 (ip), vehicle: saline", "result": "95 % of control"}, {"measurement": "T/C", "setting": "dose: 6.25 mg/kg/injection, schedule: Q04DX003 (ip), vehicle: saline", "result": "95 % of control"}, {"measurement": "T/C", "setting": "dose: 12.5 mg/kg/injection, schedule: Q04DX003 (ip), vehicle: saline", "result": "100 % of control"}]}, {"smiles": "CCN=c1cc2oc3cc(NCC)c(C)cc3c(-c3ccccc3C(=O)OCC)c-2cc1C", "values": [{"measurement": "T/C", "setting": "dose: 0.4 mg/kg/injection, schedule: Q01DX005 (ip), vehicle: saline with Tween-80", "result": "110 % of control"}, {"measurement": "T/C", "setting": "dose: 0.8 mg/kg/injection, schedule: Q01DX005 (ip), vehicle: saline with Tween-80", "result": "116 % of control"}, {"measurement": "T/C", "setting": "dose: 1.6 mg/kg/injection, schedule: Q01DX005 (ip), vehicle: saline with Tween-80", "result": "119 % of control"}]}, {"smiles": "Nc1ncnc2nc(-c3ccccc3)[nH]c12", "values": [{"measurement": "T/C", "setting": "[7]", "result": "102 % of control"}, {"measurement": "T/C", "setting": "[8]", "result": "100 % of control"}, {"measurement": "T/C", "setting": "[9]", "result": "105 % of control"}]}, {"smiles": "COC1=CC(=Nc2ccc(N(CCCl)CCCl)cc2)C=CC1=O", "values": [{"measurement": "T/C", "setting": "[5]", "result": "159 % of control"}, {"measurement": "T/C", "setting": "[6]", "result": "151 % of control and 154 % of control"}, {"measurement": "T/C", "setting": "dose: 100.0 mg/kg/injection, schedule: Q01DX009 (ip), vehicle: Klucel (hydroxypropylcellulose) (HPC)", "result": "159 % of control and 174 % of control"}]}, {"smiles": "O=c1[nH]c2c([N+](=O)[O-])cc(Cl)cc2nc1/C=C(\\O)c1ccccn1", "values": [{"measurement": "T/C", "setting": "dose: 60.0 mg/kg/injection, schedule: Q01DX005 (ip), vehicle: Klucel (hydroxypropylcellulose) (HPC)", "result": "101 % of control"}, {"measurement": "T/C", "setting": "dose: 120.0 mg/kg/injection, schedule: Q01DX005 (ip), vehicle: Klucel (hydroxypropylcellulose) (HPC)", "result": "99 % of control"}, {"measurement": "T/C", "setting": "dose: 240.0 mg/kg/injection, schedule: Q01DX005 (ip), vehicle: Klucel (hydroxypropylcellulose) (HPC)", "result": "98 % of control"}]}, {"smiles": "CSc1nc(NCc2ccc(Cl)cc2)c2[nH]c(C)nc2n1", "values": [{"measurement": "T/C", "setting": "dose: 0.2 mg/kg/injection, schedule: Q01DX009 (ip), vehicle: saline with Tween-80", "result": "98 % of control and 101 % of control"}, {"measurement": "T/C", "setting": "dose: 0.39 mg/kg/injection, schedule: Q01DX009 (ip), vehicle: saline with Tween-80", "result": "101 % of control and 94 % of control"}, {"measurement": "T/C", "setting": "dose: 0.78 mg/kg/injection, schedule: Q01DX009 (ip), vehicle: saline with Tween-80", "result": "106 % of control and 93 % of control"}, {"measurement": "T/C", "setting": "dose: 1.56 mg/kg/injection, schedule: Q01DX009 (ip), vehicle: saline with Tween-80", "result": "99 % of control and 95 % of control"}]}, {"smiles": "CC(c1ccccc1)n1ccnc1CC#N", "note": "(stereo not drawn)", "values": [{"measurement": "T/C", "setting": "dose: 15.0 mg/kg/injection, schedule: Q01DX005 (ip), vehicle: saline", "result": "101 % of control"}, {"measurement": "T/C", "setting": "dose: 30.0 mg/kg/injection, schedule: Q01DX005 (ip), vehicle: saline", "result": "100 % of control"}, {"measurement": "T/C", "setting": "dose: 60.0 mg/kg/injection, schedule: Q01DX005 (ip), vehicle: saline", "result": "99 % of control and 98 % of control"}]}, {"smiles": "CC(=O)O.CC(=O)O.[Co+2].[NH-]C(CCC(N)=O)C(=O)O.[NH-]C(CCC(N)=O)C(=O)O", "note": "(stereo not drawn)", "values": [{"measurement": "T/C", "setting": "[1]", "result": "98 % of control"}]}, {"smiles": "OC(CCl)Cn1nc2ccccc2n1", "note": "(stereo not drawn)", "values": [{"measurement": "T/C", "setting": "[3]", "result": "96 % of control"}, {"measurement": "T/C", "setting": "[4]", "result": "105 % of control"}, {"measurement": "T/C", "setting": "dose: 100.0 mg/kg/injection, schedule: Q04DX003 (ip), vehicle: Klucel (hydroxypropylcellulose) (HPC)", "result": "99 % of control"}, {"measurement": "T/C", "setting": "dose: 200.0 mg/kg/injection, schedule: Q01DX005 (ip), vehicle: Klucel (hydroxypropylcellulose) (HPC)", "result": "103 % of control"}, {"measurement": "T/C", "setting": "dose: 200.0 mg/kg/injection, schedule: Q04DX003 (ip), vehicle: Klucel (hydroxypropylcellulose) (HPC)", "result": "99 % of control"}, {"measurement": "T/C", "setting": "dose: 400.0 mg/kg/injection, schedule: Q04DX003 (ip), vehicle: Klucel (hydroxypropylcellulose) (HPC)", "result": "93 % of control"}]}, {"smiles": "C=C(C#N)C1OC2OC(C)(C)OC2C1OCCCCCCCC", "note": "(stereo not drawn)", "values": [{"measurement": "T/C", "setting": "dose: 100.0 mg/kg/injection, schedule: Q04DX002 (ip), vehicle: saline with Tween-80", "result": "106 % of control"}, {"measurement": "T/C", "setting": "dose: 200.0 mg/kg/injection, schedule: Q04DX002 (ip), vehicle: saline with Tween-80", "result": "106 % of control"}]}, {"smiles": "CCCC(C(CC)CN(C)C)N(C)C", "note": "(stereo not drawn)", "values": [{"measurement": "T/C", "setting": "[1]", "result": "101 % of control"}, {"measurement": "T/C", "setting": "[2]", "result": "93 % of control"}]}, {"smiles": "Nc1ncnc(N)c1NC(=O)c1ccc(OCc2ccccc2)cc1", "values": [{"measurement": "T/C", "setting": "[7]", "result": "105 % of control"}, {"measurement": "T/C", "setting": "[8]", "result": "99 % of control"}, {"measurement": "T/C", "setting": "[9]", "result": "95 % of control"}]}]}
